Molecular target: T1, Mm HCP (Methanothermobacter marburgensis, UniProt D9PYV4)
T1 construct: full length with N-terminal rubredoxin domain (Met1-Arg52), C-terminal His6-tag, recombinant from E. coli C41(DE3) with pBBRISC, anaerobically purified; homodimer
T1 sequence (D9PYV4 1-491): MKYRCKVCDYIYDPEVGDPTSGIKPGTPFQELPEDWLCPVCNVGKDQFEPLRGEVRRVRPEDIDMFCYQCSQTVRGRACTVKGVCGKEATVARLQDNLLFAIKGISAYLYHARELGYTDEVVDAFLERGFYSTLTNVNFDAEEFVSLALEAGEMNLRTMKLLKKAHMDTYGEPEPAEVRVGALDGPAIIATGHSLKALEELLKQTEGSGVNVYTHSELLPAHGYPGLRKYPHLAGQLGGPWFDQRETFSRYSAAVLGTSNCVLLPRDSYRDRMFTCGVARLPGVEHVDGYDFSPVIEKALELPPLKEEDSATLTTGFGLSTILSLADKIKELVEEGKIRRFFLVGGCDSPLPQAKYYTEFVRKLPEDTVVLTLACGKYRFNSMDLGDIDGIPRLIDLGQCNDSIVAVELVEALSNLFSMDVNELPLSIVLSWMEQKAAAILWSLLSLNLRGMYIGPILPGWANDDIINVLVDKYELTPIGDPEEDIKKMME
Type: binding

With `[S]12[Fe]3[S]4[Fe]1[S]1[Fe]2[S]3[Fe]41` [[4Fe-4S] cluster] as the compound, how does the “X-ray crystal structure, 2.8 Å” value read?
The value was “The Fe ions, [4Fe-4S] cluster and hybrid cluster ([4Fe-2S-3O] cluster) are represented as spheres”.

— paper PMC10502027, “Class III hybrid cluster protein homodimeric architecture shows evolutionary relationship with Ni, Fe-carbon monoxide dehydrogenases” (Nature Communications, 2023)
